Reference: patent publication US11214803B2, “Modulators of YAP1 expression” (Ionis Pharmaceuticals, Inc., priority 2019, dated 2022)
Strand notation (5' to 3'): a small letter for the sugar, then the base; units joined by * are phosphorothioate-linked, units joined directly phosphodiester-linked; [ ] holds rarer units or linkages, { } end groups; capitals alone tell only the bases. k = constrained ethyl (cEt); [5mC] = 5-methylcytosine; d = 2'-deoxy (DNA)

Key:
Yap1 mRNA [1] = test: Yap1 mRNA in NCI H747 cells, RNA analysis (Example 31); format: cell-based, human; details: free uptake, approximately 48 hours
Protocol: Modified oligonucleotides described in the studies above were tested at various doses in colorectal adenocarcinoma cell line NCI H747. A control oligonucleotide 792169 was also tested.
Cultured NCI H747 cells at a density of 10,000 cells per well were treated using free uptake with modified oligonucleotides diluted to concentrations described in the tables below. After approximately 48 hours, Yap1 mRNA levels were measured as previously described using the Human Yap1 primer-probe set RTS4814. Yap1 mRNA levels were normalized to actin-beta content, as measured by primer probe set RTS5002. Results are presented in the tables below as percent control of the amount of Yap1 mRNA relative to untreated control cells (% UTC).

NCI H292 cells = test: Cell proliferation assay in NCI H292 cells, CellTiter-Glo (Example 32); format: cell-based, human; details: free uptake, approximately 144 hours
Protocol: Modified oligonucleotides described in the studies above were tested at various doses in mucoepidermoid pulmonary carcinoma cell line […]. A control oligonucleotide 792169 was also tested.
Cultured NCI H292 cells at a density of 1000 cells/well were treated using free uptake with modified oligonucleotides diluted to concentrations described in the tables below. After approximately 144 hours, cell proliferation was measured using the luminescent cell viability CellTiter-Glo® 2.0 Assay (Promega). Results are presented in the tables below as percent control of the amount of luminescence in samples treated with modified oligonucleotides relative to untreated control cells (% UTC).

BICR-22 cells = test: Cell proliferation assay in BICR-22 cells, CellTiter-Glo (Example 35); format: cell-based, human; details: free uptake, approximately 144 hours
Protocol: Modified oligonucleotides described in the studies above were tested at various doses in tongue squamous carcinoma (lymph node metastasis) cell line BICR-22. A control oligonucleotide 792169, described herein above, was also tested.
Cultured BICR-22 cells at a density of 1000 cells/well were treated using free uptake with modified oligonucleotides diluted to concentrations described in the tables below. After approximately 144 hours, cell proliferation was measured using the luminescent cell viability CellTiter-Glo® 2.0 Assay (Promega). Results are presented in the tables below as percent control of the amount of luminescence in samples treated with modified oligonucleotides relative to untreated control cells (% UTC).

Yap1 mRNA [2] = test: Yap1 mRNA in CAL33 cells, RNA analysis (Example 36); format: cell-based, human; details: free uptake, approximately 48 hours
Protocol: Modified oligonucleotides described in the studies above were tested at various doses in tongue squamous cell carcinoma line CAL33. A control oligonucleotide 792169, described herein above, was also tested.
Cultured CAL33 cells at a density of 5000 cells per well were treated using free uptake with modified oligonucleotides diluted to concentrations described in the tables below. After approximately 48 hours, Yap1 mRNA levels were measured as previously described using the Human Yap1 primer-probe set RTS4814. Yap1 mRNA levels were normalized to actin-beta content, as measured by primer probe set RTS5002. Results are presented in the tables below as percent control of the amount of Yap1 mRNA relative to untreated control cells (% UTC).

Detroit-562 cells = test: Cell proliferation assay in Detroit-562 cells, CellTiter-Glo (Example 38); format: cell-based, human; details: free uptake, approximately 144 hours
Protocol: Modified oligonucleotides described in the studies above were tested at various doses in pharynx carcinoma cell line Detroit-562. A control oligonucleotide 792169, described herein above, was also tested.
Cultured Detroit-562 cells at a density of 1000 cells/well were treated using free uptake with modified oligonucleotides diluted to concentrations described in the tables below. After approximately 144 hours, cell proliferation was measured using the luminescent cell viability CellTiter-Glo® 2.0 Assay (Promega). Results are presented in the tables below as percent control of the amount of luminescence in samples treated with modified oligonucleotides relative to untreated control cells (% UTC).

Yap1 mRNA [3] = test: Yap1 mRNA in SCC-25 cells, RNA analysis (Example 42); format: cell-based, human; details: free uptake, approximately 48 hours
Protocol: Modified oligonucleotides described in the studies above were tested at various doses in tongue squamous cell carcinoma cell line SCC-25. A control oligonucleotide 792169, described herein above, was also tested.
Cultured SCC-25 cells at a density of 5000 cells per well were treated using free uptake with modified oligonucleotides diluted to concentrations described in the tables below. After approximately 48 hours, Yap1 mRNA levels were measured as previously described using the Human Yap1 primer-probe set RTS4814. Yap1 mRNA levels were normalized to actin-beta content, as measured by primer probe set RTS5002. Results are presented in the tables below as percent control of the amount of Yap1 mRNA relative to untreated control cells (% UTC).

SNU-1066 cells = test: Cell proliferation assay in SNU-1066 cells, CellTiter-Glo (Example 44); format: cell-based, human; details: free uptake, approximately 144 hours
Protocol: Modified oligonucleotides described in the studies above were tested at various doses in laryngeal squamous cell carcinoma line SNU-1066. A control oligonucleotide 792169, described herein above, was also tested.
Cultured SNU-1066 cells at a density of 1000 cells/well were treated using free uptake with modified oligonucleotides diluted to concentrations described in the tables below. After approximately 144 hours, cell proliferation was measured using the luminescent cell viability CellTiter-Glo® 2.0 Assay (Promega). Results are presented in the tables below as percent control of the amount of luminescence in samples treated with modified oligonucleotides relative to untreated control cells (% UTC).

CAL33 xenograft tumor = test: Tumor volume and tumor weight in CAL33 xenograft tumor model (Example 29); format: in vivo, human; details: 50 mg/kg twice weekly for two weeks; for Average Tumor weight: CAL33 xenograft mice, end of study; for Average Tumor Volume: CAL33 xenografts
Protocol: A xenograft tumor model was used to evaluate activity of modified oligonucleotides targeted to human Yap1. One million CAL33 cells in 30% matrigel were implanted subcutaneously into the flanks of female CrTac:NCr-Foxnlnu (Taconic) mice. When tumors reached an average volume of 100 mm^3, approximately two weeks post-implantation, groups of eight mice were administered at 50 mg/kg twice weekly with modified oligonucleotides for two weeks. ION 792169 was administered as a control.
Tumor volume was measured at the indicated days in the table below. Tumor weight was determined at end of study. Mice were sacrificed when tumors from PBS-treated mice reached 2,000 mm3.

Row | Substance | human Yap1 mRNA expression (Yap1 mRNA [1]; 0.04 μM) | human Yap1 mRNA expression (Yap1 mRNA [1]; 0.2 μM) | human Yap1 mRNA expression (Yap1 mRNA [1]; 1 μM) | human Yap1 mRNA expression (Yap1 mRNA [1]; 5 μM) | Antiproliferative effect (cell proliferation, luminescence) (NCI H292 cells; 0.04 μM) | Antiproliferative effect (cell proliferation, luminescence) (NCI H292 cells; 0.2 μM) | Antiproliferative effect (cell proliferation, luminescence) (NCI H292 cells; 1 μM) | Antiproliferative effect (cell proliferation, luminescence) (NCI H292 cells; 5 μM) | Antiproliferative effect (cell proliferation, luminescence) (BICR-22 cells; 0.04 μM) | Antiproliferative effect (cell proliferation, luminescence) (BICR-22 cells; 0.2 μM) | Antiproliferative effect (cell proliferation, luminescence) (BICR-22 cells; 1 μM) | Antiproliferative effect (cell proliferation, luminescence) (BICR-22 cells; 5 μM) | human Yap1 mRNA expression (Yap1 mRNA [2]; 0.04 μM) | human Yap1 mRNA expression (Yap1 mRNA [2]; 0.2 μM) | human Yap1 mRNA expression (Yap1 mRNA [2]; 1 μM) | human Yap1 mRNA expression (Yap1 mRNA [2]; 5 μM) | Antiproliferative effect (cell proliferation, luminescence) (Detroit-562 cells; 0.04 μM) | Antiproliferative effect (cell proliferation, luminescence) (Detroit-562 cells; 0.2 μM) | Antiproliferative effect (cell proliferation, luminescence) (Detroit-562 cells; 1 μM) | Antiproliferative effect (cell proliferation, luminescence) (Detroit-562 cells; 5 μM) | other results
1 | 715487 (kA*kT*kT*dA*d[5mC]*dT*dT*d[5mC]*dA*dT*dA*dG*d[5mC]*kT*kT*kA) [compound 715487] | 83 % UTC | 70 % UTC | 49 % UTC | 30 % UTC | 87 % UTC | 90 % UTC | 69 % UTC | 20 % UTC | 70 % UTC | 56 % UTC | 28 % UTC | 22 % UTC | 81 % UTC | 41 % UTC | 12 % UTC | 6 % UTC | 92 % UTC | 84 % UTC | 71 % UTC | 52 % UTC | human Yap1 mRNA expression (Yap1 mRNA [3]; 0.08 μM): 70 % UTC; human Yap1 mRNA expression (Yap1 mRNA [3]; 0.4 μM): 32 % UTC; human Yap1 mRNA expression (Yap1 mRNA [3]; 2 μM): 16 % UTC; human Yap1 mRNA expression (Yap1 mRNA [3]; 10 μM): 11 % UTC; Antiproliferative effect (cell proliferation, luminescence) (SNU-1066 cells; 0.04 μM): 97 % UTC; Antiproliferative effect (cell proliferation, luminescence) (SNU-1066 cells; 0.2 μM): 86 % UTC; Antiproliferative effect (cell proliferation, luminescence) (SNU-1066 cells; 1 μM): 72 % UTC; Antiproliferative effect (cell proliferation, luminescence) (SNU-1066 cells; 5 μM): 47 % UTC
2 | 1198440 (AAGTGTATGTCAGAAG; cEt, 2'-MOE, 5-methylcytosine, phosphorothioate modifications, further chemistry not given here) [compound 1198440] | 73 % UTC | 53 % UTC | 21 % UTC | 9 % UTC | 100 % UTC | 83 % UTC | 30 % UTC | 15 % UTC | 55 % UTC | 37 % UTC | 29 % UTC | 19 % UTC | 43 % UTC | 14 % UTC | 5 % UTC | 5 % UTC | 84 % UTC | 67 % UTC | 59 % UTC | 45 % UTC | Average Tumor weight (CAL33 xenograft tumor): 0.36 g; Average Tumor Volume (CAL33 xenograft tumor; day 10 post-implantation): 115 mm^3; Average Tumor Volume (CAL33 xenograft tumor; day 13 post-implantation): 279 mm^3; Average Tumor Volume (CAL33 xenograft tumor; day 17 post-implantation): 376 mm^3; Average Tumor Volume (CAL33 xenograft tumor; day 21 post-implantation): 574 mm^3; Average Tumor Volume (CAL33 xenograft tumor; day 24 post-implantation): 651 mm^3; Average Tumor Volume (CAL33 xenograft tumor; day 27 post-implantation): 818 mm^3; Average Tumor Volume (CAL33 xenograft tumor; day 31 post-implantation): 888 mm^3; Average Tumor Volume (CAL33 xenograft tumor; day 34 post-implantation): 857 mm^3; Average Tumor Volume (CAL33 xenograft tumor; day 38 post-implantation): 770 mm^3; Average Tumor Volume (CAL33 xenograft tumor; day 40 post-implantation): 746 mm^3; Average Tumor Volume (CAL33 xenograft tumor; day 44 post-implantation): 834 mm^3; human Yap1 mRNA expression (Yap1 mRNA [3]; 0.08 μM): 32 % UTC; human Yap1 mRNA expression (Yap1 mRNA [3]; 0.4 μM): 12 % UTC; human Yap1 mRNA expression (Yap1 mRNA [3]; 2 μM): 8 % UTC; human Yap1 mRNA expression (Yap1 mRNA [3]; 10 μM): 7 % UTC; Antiproliferative effect (cell proliferation, luminescence) (SNU-1066 cells; 0.04 μM): 89 % UTC; Antiproliferative effect (cell proliferation, luminescence) (SNU-1066 cells; 0.2 μM): 66 % UTC; Antiproliferative effect (cell proliferation, luminescence) (SNU-1066 cells; 1 μM): 58 % UTC; Antiproliferative effect (cell proliferation, luminescence) (SNU-1066 cells; 5 μM): 43 % UTC
3 | 1198728 (TATTAGAGTATGTGGC; modified gapmer, further chemistry not given here) [compound 1198728] |  |  |  |  |  |  |  |  |  |  |  |  |  |  |  |  |  |  |  |  | Average Tumor weight (CAL33 xenograft tumor): 0.88 g; Average Tumor Volume (CAL33 xenograft tumor; day 10 post-implantation): 113 mm^3; Average Tumor Volume (CAL33 xenograft tumor; day 13 post-implantation): 253 mm^3; Average Tumor Volume (CAL33 xenograft tumor; day 17 post-implantation): 423 mm^3; Average Tumor Volume (CAL33 xenograft tumor; day 21 post-implantation): 621 mm^3; Average Tumor Volume (CAL33 xenograft tumor; day 24 post-implantation): 835 mm^3; Average Tumor Volume (CAL33 xenograft tumor; day 27 post-implantation): 988 mm^3; Average Tumor Volume (CAL33 xenograft tumor; day 31 post-implantation): 1123 mm^3; Average Tumor Volume (CAL33 xenograft tumor; day 34 post-implantation): 1233 mm^3; Average Tumor Volume (CAL33 xenograft tumor; day 38 post-implantation): 1239 mm^3; Average Tumor Volume (CAL33 xenograft tumor; day 40 post-implantation): 1277 mm^3; Average Tumor Volume (CAL33 xenograft tumor; day 44 post-implantation): 1277 mm^3
